# Experimental data reported in PMC10014103, “The immunometabolite itaconate stimulates OXGR1 to promote mucociliary clearance during the pulmonary innate immune response” (The Journal of Clinical Investigation, 2023).
# pEC50: −log10 of the molar value. Several values for one entry are separate records, joined by “and”; a condition that tells them apart may be missing. Equal entries are not always repeated.
# Assays:
# [1] = target: T1, FLAG-tagged OXGR1 (Homo sapiens, UniProt Q96P68); test: Endocytosis assay of FLAG-tagged OXGR1 in HEK293 cells; type: cell-based; settings: WT OXGR1, within 10 minutes of ligand treatment
# T1 construct: expressed in transfected cells
# Procedure: (§1) For endocytosis assays, HEK293 cells stably expressing FLAG-OXGR1 were chilled on ice in DMEM medium supplemented with 30 mM HEPES for 10 minutes. […] Unbound antibody was then washed off with prechilled HBSS buffer. […] After ligand stimulation, cells were fixed and permeabilized. Subcellular localization of FLAG-tagged OXGR1 was detected using FITC-donkey anti-rabbit antibody (Invitrogen, Thermo Fisher Scientific), and nuclei were stained with DAPI (MilliporeSigma). Immunofluorescence images were captured with a Leica SP8 laser-scanning confocal microscope.
# [2] = tested on: FLAG-tagged OXGR1; test: as above; type: cell-based, human; settings: after ITA treatment
# Procedure: as §1
# [3] = tested on: primary human bronchial epithelial cells; test: Calcium imaging (Fluo-4AM) of primary human bronchial epithelial cells; type: cell-based; settings: 0.5 mM ITA
# Procedure: For calcium imaging of human primary bronchial epithelial cells, cells were infected with 2 CRISPR lentiviruses targeting OXGR1 and cultured for 2 days before calcium imaging. For calcium imaging of primary mouse cells, freshly isolated mouse tracheas were cut into rings, placed onto collagen-coated dishes, and cultured in DMEM supplemented with 10% FBS. Cells were loaded with 5 μM Fluo-4AM for 30 minutes in HBSS buffer, washed twice, and incubated for another 15 minutes for fully deesterification of Fluo-4AM. Cells loaded with Fluo-4AM were monitored with the BioTek Cytation 5 Cell imaging system every 300 ms for a total of 1.5 minutes after ligand administration. Fluorescence was quantified with ImageJ software (NIH).
# [4] = tested on: primary mouse respiratory epithelial cells (ALI culture); test: Bead movement in ALI culture of primary mouse respiratory epithelial cells; type: cell-based; settings: 500 μM ITA, Oxgr1+/+ vs Oxgr1–/–
# Procedure: . When they reached full confluence, the cells were differentiated by exposure to air and cultured in a serum-free medium for 20 days. ALI culturing of primary human bronchial epithelium was performed following the manufacturer’s manual ([…] Technologies). Briefly, cells were maintained in PneumaCult-Ex Plus medium on a Transwell insert. Medium on the lateral side was switched to PneumaCult-ALI medium. The apical side of the Transwell membrane was then carefully washed with prewarmed Dulbecco’s PBS (DPBS). Cells were differentiated by exposure to air for 3 weeks. The medium was changed every 2 days.
# For the measurement of bead movement in ALI culture, the apical side of the ALI culture inserts was washed with PBS 5 times to fully remove mucus. The inserts were transferred to HBSS buffer supplemented with 30 mM HEPES and the indicated ligand, and 20 μL bath buffer containing red fluorescent beads was added to the apical side. After 15 minutes of equilibration, bead movement was monitored with the BioTek Cytation 5 cell imaging system.
# [5] = ITA concentration in BAL after intranasal supplementation (LC-MS); type: in vivo; settings: mouse, bronchoalveolar lavage fluid (BAL), other: intranasal, 20 µL of saline containing 1 mM ITA; 0.5 hours after intranasal ITA supplementation
# Procedure: The concentrations of urea in plasma and BAL were determined using a urea assay kit (Solarbio). For ITA determination, samples were extracted by 80% (vol/vol) chilled (–80°C) methanol and analyzed with an ultra-high-performance liquid chromatograph (Acquity UPLC I-Class, Waters) coupled to a triple quadrupole mass spectrometer (Xevo TQ-XS, Waters). For α-KG determination, samples were lyophilized and derived by methoxyamine (MilliporeSigma) and N-methyl-N-[tert-butyldimethylsilyl] trifluoroacetamide (MilliporeSigma) in pyridine (MilliporeSigma). The derivatized sample was injected into an Agilent 7890A-5975C GC-MS system with an HP-5MS column.
# Supplementary Figure 8. ITA level is positively correlated with Mucin 5b or β-defensin 1 concentration in BAL from mice after P. aeruginosa infection
# A. ITA concentration in BAL was determined by LC-MS after intranasal delivery of 20μL saline containing PAO1 and 1mM ITA (n=3-4).B-C. Comparison of Mucin 5b (B) and β-defensin1 (C) concentration in BAL of P. aeruginosainfected mice with indicated genotypes (n=4-10). Significance is determined by paired t-test. n.s., no significance. D-E. Correlation analysis of ITA concentration and Mucin 5b (D) or β-defensin1 concentration (E) in BAL ofP. aeruginosainfected WT mice. […]
# [6] = target: T2, mouse OXGR1 (Mus musculus, UniProt Q6IYF8); test: Aequorin assay (calcium mobilization) in HEK293 cells overexpressing mouse OXGR1; type: cell-based; settings: aequorin assay, mOXGR1 in HEK293 cells; read-out: EC50
# T2 construct: expressed in transfected cells; host or cells: HEK293
# Procedure: Thirty-six hours after transfection, cells were maintained in serum-free medium for 12 hours and then loaded with 5 μM coelenterazine for 3 hours. Cells were trypsinized and resuspended at a density of 5 × 10^5 cells/mL in HBSS supplemented with 10 mM HEPES and 0.5% BSA. Cell suspensions of 100 μL were aliquoted into 96-well plates.
# [7] = tested on: mucin 5b and β-defensin 1; test: ELISA of mucin 5b and β-defensin 1 in BAL of P. aeruginosa infected mice; type: in vivo, mouse; settings: ITA intranasal supplementation, P. aeruginosa infection
# Description: Mucins and antimicrobial polypeptides are essential immune defense components secreted by the respiratory tract ([41], [42]). To test the hypothesis that ITA/OXGR1 signaling may alter the concentration of mucins and antimicrobial polypeptides, we performed an ELISA to quantify the concentration of mucin 5b and β-defensin 1 in the mouse models of P. aeruginosa infection. […] It should be noted that Oxgr1 activation by ITA can simultaneously facilitate mucus secretion and mucus transport (Figure 4). These 2 “opposite” effects of ITA/OXGR1 on mucus may explain the observation of a lack of significant change in mucin 5b and β-defensin 1 in the airway’s surface liquid.
# [8] = tested on: Pseudomonas aeruginosa strain PAO1; test: Mouse intranasal infection with P. aeruginosa strain PAO1, CFU in BAL and lung; type: in vivo; settings: intranasal 1 mM ITA with PAO1, 12 hours after infection
# Procedure: A 1 × 10^7 log-phase PAO1 strain in 40 μL PBS was used for infection of the mice. Mice were gently restrained by the scruff at a 45° angle. PBS with the indicated strains was delivered to the nares. PBS alone or with 1 mM ITA was codelivered along with PAO1. Mouse mouths were covered during the whole procedure to ensure complete inhalation into the nose and the lower respiratory tract. BAL and lung tissue were collected 12 hours of infection and plated in cetyl trimethyl ammonium bromide (CTAB) selection agar. The numbers of CFU were counted after 18 hours of culture.
# [9] = target: human OXGR1 (Homo sapiens, UniProt Q96P68); test: Stress fiber assay in NIH3T3 cells stably expressing OXGR1; type: cell-based, mouse; settings: 500 μM ITA, 30 minutes, G12/13 coupling
# Procedure: For the stress fiber assay, NIH3T3 cells stably expressing OXGR1 were treated with 500 μM ITA or 10 μM lysophosphatidic acid (LPA) for 30 minutes. Cells were fixed with 4% paraformaldehyde and permeabilized with 0.1% Triton X-100. Stress fibers were stained with FITC-phalloidin (Invitrogen, Thermo Fisher Scientific). Nuclei were stained with DAPI. Immunofluorescence images were captured with a Leica SP8 laser-scanning confocal microscope.
# T2 sequence (Q6IYF8 whole entry): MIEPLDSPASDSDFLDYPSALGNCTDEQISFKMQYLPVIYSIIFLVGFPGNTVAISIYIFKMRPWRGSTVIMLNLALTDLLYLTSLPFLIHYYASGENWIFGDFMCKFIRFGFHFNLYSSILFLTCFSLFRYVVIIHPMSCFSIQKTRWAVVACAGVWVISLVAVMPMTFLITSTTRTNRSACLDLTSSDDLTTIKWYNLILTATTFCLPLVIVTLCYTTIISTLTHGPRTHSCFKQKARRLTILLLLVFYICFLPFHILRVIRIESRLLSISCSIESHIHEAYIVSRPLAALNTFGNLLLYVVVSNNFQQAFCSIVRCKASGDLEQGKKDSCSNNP
compound,measurement,setting,value
"C=C(CC(=O)O)C(=O)O [ITA, itaconate]",endocytosis of OXGR1,[1],rapid endocytosis of OXGR1 was triggered
same,endocytosis of R110A or R261A mutant OXGR1,[2],did not undergo endocytosis
same,calcium mobilization,[3]; control cells,robust calcium mobilization
same,calcium mobilization after depletion of OXGR1,[3]; sgOXGR1,abolished by depletion of OXGR1
same,movement of beads,[4],could accelerate the movement of beads in an Oxgr1-dependent manner
same,concentration at 0.5 h,[5],200 to 300 nM
same,pEC50,[6],3.38 and ~3.40
same,level of mucin 5b in BAL,[7],Neither ITA intranasal supplementation nor Irg1 or Oxgr1 KO altered the levels
same,level of β-defensin 1 in BAL,[7],Neither ITA intranasal supplementation nor Irg1 or Oxgr1 KO altered the levels
same,"bacterial overgrowth phenotype (CFU in BAL and lung), Irg1–/– mice",[8],rescued the bacterial overgrowth phenotype
same,stress fiber formation,[9],failed to affect stress fiber formation
